Measurements taken from patent US20240358693A1, “METHODS OF TREATING PAIN” (Aisa Pharma, Inc., priority 2023, published 2024).

Tested on: participants with SSc-RP
Experiment: Average duration of weekly RP attacks (minutes)
Format: in vivo, human
Description: The absolute change in average duration of weekly RP attacks from baseline to the end of each dosing period was and will be a secondary outcome variable. The sponsor-developed participant-informed diary was and will be used to record data. Average duration of weekly RP attacks is defined as the total duration of RP attacks divided by total number of RP attacks within the last 7 days of each dosing period. Total duration of RP attacks during the last 7 days of screening period divided by the total number of RP attacks will be used as baseline for the analysis of all periods. The variable will be calculated similar to frequency data as before.

[1] = Pooled Cilnidipine 20 mg and Cilnidipine 20 mg + Tadalafil 5 mg, Excluding Outliers, by Baseline RCS, subgroup 2, ITT Population - Part A
[2] = Pooled Cilnidipine 20 mg and Cilnidipine 20 mg + Tadalafil 5 mg, ITT Part A
[3] = Pooled Cilnidipine 20 mg and Cilnidipine 20 mg + Tadalafil 5 mg, by Baseline RCS, subgroup 1, ITT Population - Part A
[4] = Pooled Cilnidipine 20 mg and Cilnidipine 20 mg + Tadalafil 5 mg, by Baseline RCS, subgroup 2, ITT Population - Part A
[5] = Pooled Cilnidipine, n=3, Excluding Outliers, ITT Part A
[6] = Pooled Cilnidipine, n=3, ITT Part A
[7] = Pooled Cilnidipine, Baseline RCS subgroup 1 (unnamed), ITT Part A
[8] = Pooled Cilnidipine, Excluding Outliers, Baseline RCS subgroup 1 (unnamed), ITT Part A
[9] = Pooled Cilnidipine, Excluding Outliers, ITT Population - Part A
[10] = Pooled Cilnidipine, Excluding Outliers, by Baseline RCS, subgroup 1, ITT Population - Part A
[11] = Pooled Cilnidipine, by Baseline RCS, subgroup 1, ITT Population - Part A

COCCOC(=O)C1=C(C)NC(C)=C(C(=O)OC/C=C/c2ccccc2)C1c1cccc([N+](=O)[O-])c1 (centres unmarked) [Cilnidipine, cilnidipine]
Average Duration of Weekly RP Attacks (All Attacks) Change from Baseline, Median [1]: -19.09 min | Average Duration of Weekly RP Attacks (All Attacks) Percent Change from Baseline, Mean [1]: −23.33% | Average Duration of Weekly RP Attacks (All Attacks) Percent Change from Baseline, Median [1]: −23.33% | Average Duration of Weekly RP Attacks (All Attacks), Mean [1]: 62.73 min | Average Duration of Weekly RP Attacks (All Attacks), Median [1]: 62.73 min | Average Duration of Weekly RP Attacks (All Attacks) Change from Baseline, Mean [2]: -4.77 min | Average Duration of Weekly RP Attacks (All Attacks) Change from Baseline, Median [2]: -2.73 min | Average Duration of Weekly RP Attacks (All Attacks) Percent Change from Baseline, Mean [2]: −13.86% | Average Duration of Weekly RP Attacks (All Attacks) Percent Change from Baseline, Median [2]: −2.74% | Average Duration of Weekly RP Attacks (All Attacks), Mean [2]: 27.61 min | Average Duration of Weekly RP Attacks (All Attacks), Median [2]: 22.36 min | Average Duration of Weekly RP Attacks (All Attacks) Change from Baseline, Mean [3]: 0.00 min | Average Duration of Weekly RP Attacks (All Attacks) Change from Baseline, Median [3]: 2.16 min | Average Duration of Weekly RP Attacks (All Attacks) Percent Change from Baseline, Mean [3]: −10.70% | Average Duration of Weekly RP Attacks (All Attacks) Percent Change from Baseline, Median [3]: 17.86% | Average Duration of Weekly RP Attacks (All Attacks), Mean [3]: 15.91 min | Average Duration of Weekly RP Attacks (All Attacks), Median [3]: 14.27 min | Average Duration of Weekly RP Attacks (All Attacks) Change from Baseline, Mean [4]: -19.09 min | Average Duration of Weekly RP Attacks (All Attacks) Change from Baseline, Median [4]: -19.09 min | Average Duration of Weekly RP Attacks (All Attacks) Percent Change from Baseline, Mean [4]: −23.33% | Average Duration of Weekly RP Attacks (All Attacks) Percent Change from Baseline, Median [4]: −23.33% | Average Duration of Weekly RP Attacks (All Attacks), Mean [4]: 62.73 min | Average Duration of Weekly RP Attacks (All Attacks), Median [4]: 62.73 min | Duration (Pooled Cilnidipine (n = 7)): 20% | Average Duration of Weekly Symptomatic RP Attacks, Change from Baseline, Mean [5]: -7.67 min | Average Duration of Weekly Symptomatic RP Attacks, Change from Baseline, Median [5]: -10.33 min | Average Duration of Weekly Symptomatic RP Attacks, Mean [5]: 21.70 min | Average Duration of Weekly Symptomatic RP Attacks, Median [5]: 30.45 min | Average Duration of Weekly Symptomatic RP Attacks, Percent Change from Baseline, Mean [5]: −32.23% | Average Duration of Weekly Symptomatic RP Attacks, Percent Change from Baseline, Median [5]: −34.60% | Average Duration of Weekly Symptomatic RP Attacks, Change from Baseline, Mean [6]: -7.67 min | Average Duration of Weekly Symptomatic RP Attacks, Change from Baseline, Median [6]: -10.33 min | Average Duration of Weekly Symptomatic RP Attacks, Mean [6]: 21.70 min | Average Duration of Weekly Symptomatic RP Attacks, Median [6]: 30.45 min | Average Duration of Weekly Symptomatic RP Attacks, Percent Change from Baseline, Mean [6]: −32.23% | Average Duration of Weekly Symptomatic RP Attacks, Percent Change from Baseline, Median [6]: −34.60% | Average Duration of Weekly Symptomatic RP Attacks, Change from Baseline, Mean [7]: -7.67 min | Average Duration of Weekly Symptomatic RP Attacks, Change from Baseline, Median [7]: -10.33 min | Average Duration of Weekly Symptomatic RP Attacks, Mean [7]: 21.70 min | Average Duration of Weekly Symptomatic RP Attacks, Median [7]: 30.45 min | Average Duration of Weekly Symptomatic RP Attacks, Percent Change from Baseline, Mean [7]: −32.23% | Average Duration of Weekly Symptomatic RP Attacks, Percent Change from Baseline, Median [7]: −34.60% | Average Duration of Weekly Symptomatic RP Attacks, Change from Baseline, Mean [8]: -7.67 min | Average Duration of Weekly Symptomatic RP Attacks, Change from Baseline, Median [8]: -10.33 min | Average Duration of Weekly Symptomatic RP Attacks, Mean [8]: 21.70 min | Average Duration of Weekly Symptomatic RP Attacks, Median [8]: 30.45 min | Average Duration of Weekly Symptomatic RP Attacks, Percent Change from Baseline, Mean [8]: −32.23% | Average Duration of Weekly Symptomatic RP Attacks, Percent Change from Baseline, Median [8]: −34.60% | Average Duration of Weekly RP Attacks (All Attacks) Change from Baseline, Mean [9]: -3.55 min | Average Duration of Weekly RP Attacks (All Attacks) Change from Baseline, Median [9]: -7.63 min | Average Duration of Weekly RP Attacks (All Attacks) Percent Change from Baseline, Mean [9]: −23.71% | Average Duration of Weekly RP Attacks (All Attacks) Percent Change from Baseline, Median [9]: −21.20% | Average Duration of Weekly RP Attacks (All Attacks), Mean [9]: 21.66 min | Average Duration of Weekly RP Attacks (All Attacks), Median [9]: 30.45 min | Average Duration of Weekly RP Attacks (All Attacks) Change from Baseline, Mean [10]: -3.55 min | Average Duration of Weekly RP Attacks (All Attacks) Change from Baseline, Median [10]: -7.63 min | Average Duration of Weekly RP Attacks (All Attacks) Percent Change from Baseline, Mean [10]: −23.71% | Average Duration of Weekly RP Attacks (All Attacks) Percent Change from Baseline, Median [10]: −21.20% | Average Duration of Weekly RP Attacks (All Attacks), Mean [10]: 21.66 min | Average Duration of Weekly RP Attacks (All Attacks), Median [10]: 30.45 min | Average Duration of Weekly RP Attacks (All Attacks) Change from Baseline, Mean (Pooled Cilnidipine, ITT Part A): -3.55 min | Average Duration of Weekly RP Attacks (All Attacks) Change from Baseline, Median (Pooled Cilnidipine, ITT Part A): -7.63 min | Average Duration of Weekly RP Attacks (All Attacks) Percent Change from Baseline, Mean (Pooled Cilnidipine, ITT Part A): −23.71% | Average Duration of Weekly RP Attacks (All Attacks) Percent Change from Baseline, Median (Pooled Cilnidipine, ITT Part A): −21.20% | Average Duration of Weekly RP Attacks (All Attacks), Mean (Pooled Cilnidipine, ITT Part A): 21.66 min | Average Duration of Weekly RP Attacks (All Attacks), Median (Pooled Cilnidipine, ITT Part A): 30.45 min | Average Duration of Weekly RP Attacks (All Attacks) Change from Baseline, Mean [11]: -3.55 min | Average Duration of Weekly RP Attacks (All Attacks) Change from Baseline, Median [11]: -7.63 min | Average Duration of Weekly RP Attacks (All Attacks) Percent Change from Baseline, Mean [11]: −23.71% | Average Duration of Weekly RP Attacks (All Attacks) Percent Change from Baseline, Median [11]: −21.20% | Average Duration of Weekly RP Attacks (All Attacks), Mean [11]: 21.66 min | Average Duration of Weekly RP Attacks (All Attacks), Median [11]: 30.45 min | duration of Raynaud attacks, direction of change (cilnidipine or cilnidipine plus tadalafil (n=7), tadalafil monotherapy (n=2)): decrease greater than that seen in placebo treated patients | patients in whom reduction in duration exceeded a 25% threshold (cilnidipine or cilnidipine plus tadalafil treated patients): 4 of 7
